Source: US20240026461A1, “BCL10 MUTATIONS AS BIOMARKERS FOR TARGETED THERAPY IN B CELL LYMPHOMAS” (priority 2022, published 2024)
Like-named read-outs stand apart in the source and are kept apart here.

Legend:
HBL1^E140X = test: Growth inhibition assay (CellTiter Glo), HBL1 cells expressing BCL10 E140X; format: cell-based; conditions: Homo sapiens, 96 h
Procedure: (§1) DLBCL cell lines were cultured in exponential condition and the cell growth was determined by CellTiter Glo (Promega). 3000-5000 cells were seeded and cultured in each well of 384 well plate for 96 h and treated with compounds every 48 h. Luminescence was read at the endpoint with the Synergy NEO microplate reader (BioTek). The value of compound treated cells was normalized to their vehicle treated controls and then used to calculate IC50 in GraphPad Prism (RRID:SCR_002798).
(§2) Given the distinct functional profiles, CARD11 dependencies, and MALT1 activation effects of the BCL10 CARD and truncation mutants, the inventors designed experiments to evaluate whether, and to what extent, these mutant BCL10 proteins might confer BTK inhibitor resistance. Isogenic ABC-DLBCL cells expressing BCL10WT, BCL10^R58Q and BCL10^E140X proteins were treated with escalating doses of three chemically distinct covalent BTK inhibitors: ibrutinib, acalabrutinib, or zanubrutinib. The cellular proliferation rates of the treated cells were measured using an ATP fluorescence assay after 96 hours of drug exposure.
(§3) Isogenic BCL10^WT, BCL10^R58Q and BCL10^E140X ABC-DLBCLs were exposed to increasing concentrations of each of these compounds for 96 hours.

OCI-LY10^WT = test: Growth inhibition assay (CellTiter Glo), OCI-Ly10 cells expressing BCL10 WT; format: cell-based; conditions: Homo sapiens, 96 h
Procedure: as §1, §2, §3

HBL1^R58Q = test: Growth inhibition assay (CellTiter Glo), HBL1 cells expressing BCL10 R58Q; format: cell-based; conditions: Homo sapiens, 96 h
Procedure: as §1, §2, §3

OCI-LY10^R58Q = test: Growth inhibition assay (CellTiter Glo), OCI-Ly10 cells expressing BCL10 R58Q; format: cell-based; conditions: Homo sapiens, 96 h
Procedure: as §1, §2, §3

OCI-LY10^E140X = test: Growth inhibition assay (CellTiter Glo), OCI-Ly10 cells expressing BCL10 E140X; format: cell-based; conditions: Homo sapiens, 96 h
Procedure: as §1, §2, §3

HBL1^WT = test: Growth inhibition assay (CellTiter Glo), HBL1 cells expressing BCL10 WT; format: cell-based; conditions: Homo sapiens, 96 h
Procedure: as §1, §2, §3

[1] = tested on: isogenic ABC-DLBCL cells expressing BCL10^WT, BCL10^R58Q and BCL10^E140X; test: Growth inhibition of isogenic ABC-DLBCL cells, response described in words; format: cell-based, human; conditions: 96 hours
Procedure: as §1, §2, §3

[2] = read-out: IC50, growth inhibition, BTK inhibitors
[3] = read-out: IC50, growth inhibition, MALT1 inhibitors

Row | SMILES | IC50 (HBL1^E140X; [2]) | IC50 (OCI-LY10^WT; [2]) | IC50 (HBL1^R58Q; [2]) | IC50 (OCI-LY10^R58Q; [2]) | IC50 (OCI-LY10^E140X; [2]) | IC50 (HBL1^WT; [2]) | IC50 (HBL1^E140X; [3]) | growth response in words ([1]; BCL10^R58Q ABC-DLBCL cells) | growth response in words ([1]; BCL10^WT ABC-DLBCL cells) | IC50 (OCI-LY10^WT; [3]) | IC50 (HBL1^R58Q; [3]) | IC50 (OCI-LY10^R58Q; [3]) | IC50 (OCI-LY10^E140X; [3]) | IC50 (HBL1^WT; [3])
1 | CC#CC(=O)N1CCC[C@H]1c1nc(-c2ccc(C(=O)Nc3ccccn3)cc2)c2c(N)nccn12 [Acalabrutinib] | 28.2 ± 21.2 nM | 6.38 ± 0.35 nM | 5.54 ± 0.32 nM | 7.69 ± 0.59 nM | 5.39 ± 0.77 nM | 4.75 ± 2.11 nM |  |  |  |  |  |  |  | 
2 | C=CC(=O)N1CCC([C@@H]2CCNc3c(C(N)=O)c(-c4ccc(Oc5ccccc5)cc4)nn32)CC1 [Zanubrutinib] | 9.31 ± 6.22 nM | 1.74 ± 0.08 nM | 1.58 ± 0.06 nM | 1.81 ± 0.33 nM | 2.86 ± 0.13 nM | 1.46 ± 0.32 nM |  |  |  |  |  |  |  | 
3 | CO[C@H](c1c(NC(=O)Nc2cnc(-n3nccn3)c(Cl)c2)cnc2cc(Cl)nn12)[C@@H](C)OC [MLT-748] |  |  |  |  |  |  | 540 ± 500 nM | generally sensitive | generally sensitive | 70 ± 6 nM | 3320 ± 1460 nM | 240 ± 50 nM | 90 ± 60 nM | 1940 ± 200 nM
